Source: ChEMBL document CHEMBL3045142, “Several Antifeedants from Neem Oil,Azadirachta indicaA. Juss., againstReticulitermes speratusKolbe (Isoptera: Rhinotermitidae)” (1992)

Key:
Assay type in all cases: functional
Reticulitermes speratus [1] = assay: Antifeedant activity against Reticulitermes speratus assessed as antifeedant consumption at 125 ug/disk after 30 days by no-choice bioassay
Reticulitermes speratus [2] = assay: Antifeedant activity against Reticulitermes speratus assessed as survival at 50 ug/disk after 30 days by no-choice bioassay (reference value: 92.5%); conditions: 720 h
Reticulitermes speratus [3] = assay: Antifeedant activity against Reticulitermes speratus assessed as antifeedant consumption at 75 ug/disk after 30 days by no-choice bioassay
Reticulitermes speratus [4] = assay: Antifeedant activity against Reticulitermes speratus assessed as survival at 25 ug/disk after 30 days by no-choice bioassay (reference value: 92.5%); conditions: 720 h
Reticulitermes speratus [5] = assay: Antifeedant activity against Reticulitermes speratus assessed as antifeedant consumption at 150 ug/disk after 30 days by no-choice bioassay
Reticulitermes speratus [6] = assay: Antifeedant activity against Reticulitermes speratus assessed as reduction in feeding at 100 to 200 ug/disk after 30 days by no-choice bioassay relative to vehicle-control; parameters: scale not given: the % may be the effect or the level left
Reticulitermes speratus [7] = assay: Antifeedant activity against Reticulitermes speratus assessed as antifeedant consumption at 100 ug/disk after 30 days by no-choice bioassay
Reticulitermes speratus [8] = assay: Antifeedant activity against Reticulitermes speratus assessed as survival at 75 ug/disk after 30 days by no-choice bioassay (reference value: 92.5%); conditions: 720 h
Reticulitermes speratus [9] = assay: Antifeedant activity against Reticulitermes speratus assessed as survival at 100 ug/disk after 30 days by no-choice bioassay (reference value: 92.5%); conditions: 720 h
Reticulitermes speratus [10] = assay: Antifeedant activity against Reticulitermes speratus assessed per disk after 30 days by no-choice bioassay
Reticulitermes speratus [11] = assay: Antifeedant activity against Reticulitermes speratus assessed as survival at 125 ug/disk after 30 days by no-choice bioassay (reference value: 92.5%); conditions: 720 h
Reticulitermes speratus [12] = assay: Antifeedant activity against Reticulitermes speratus assessed as survival at 150 ug/disk after 30 days by no-choice bioassay (reference value: 92.5%); conditions: 720 h
Reticulitermes speratus [13] = assay: Antifeedant activity against Reticulitermes speratus assessed as antifeedant consumption at 25 ug/disk after 30 days by no-choice bioassay
Reticulitermes speratus [14] = assay: Antifeedant activity against Reticulitermes speratus assessed as antifeedant consumption at 50 ug/disk after 30 days by no-choice bioassay
Reticulitermes speratus [15] = assay: Antifeedant activity against Reticulitermes speratus assessed as antifeedant consumption at 200 ug/disk after 30 days by no-choice bioassay
Reticulitermes speratus [16] = assay: Antifeedant activity against Reticulitermes speratus assessed as survival at 300 ug/disk after 30 days by no-choice bioassay (reference value: 92.5%); conditions: 720 h
Reticulitermes speratus [17] = assay: Antifeedant activity against Reticulitermes speratus assessed as survival at 400 ug/disk after 30 days by no-choice bioassay (reference value: 92.5%); conditions: 720 h
Reticulitermes speratus [18] = assay: Antifeedant activity against Reticulitermes speratus assessed as survival at 200 ug/disk after 30 days by no-choice bioassay (reference value: 92.5%); conditions: 720 h
Reticulitermes speratus [19] = assay: Antifeedant activity against Reticulitermes speratus assessed as antifeedant consumption at 10 ug/disk after 30 days by no-choice bioassay
Reticulitermes speratus [20] = assay: Antifeedant activity against Reticulitermes speratus assessed as reduction in feeding at 50 ug/disk after 30 days by no-choice bioassay relative to vehicle-control; parameters: scale not given: the % may be the effect or the level left
Reticulitermes speratus [21] = assay: Antifeedant activity against Reticulitermes speratus assessed as antifeedant consumption at 7.5 ug/disk after 30 days by no-choice bioassay
Reticulitermes speratus [22] = assay: Antifeedant activity against Reticulitermes speratus assessed as survival at 7.5 ug/disk after 30 days by no-choice bioassay (reference value: 92.5%); conditions: 720 h
Reticulitermes speratus [23] = assay: Antifeedant activity against Reticulitermes speratus assessed as survival at 5 ug/disk after 30 days by no-choice bioassay (reference value: 92.5%); conditions: 720 h
Reticulitermes speratus [24] = assay: Antifeedant activity against Reticulitermes speratus assessed as survival at 10 ug/disk after 30 days by no-choice bioassay (reference value: 92.5%); conditions: 720 h
Reticulitermes speratus [25] = assay: Antifeedant activity against Reticulitermes speratus assessed as antifeedant consumption at 5 ug/disk after 30 days by no-choice bioassay
Reticulitermes speratus [26] = assay: Antifeedant activity against Reticulitermes speratus assessed as survival at 500 ug/disk after 30 days by no-choice bioassay (reference value: 92.5%); conditions: 720 h
Reticulitermes speratus [27] = assay: Antifeedant activity against Reticulitermes speratus assessed as antifeedant consumption at 400 ug/disk after 30 days by no-choice bioassay
Reticulitermes speratus [28] = assay: Antifeedant activity against Reticulitermes speratus assessed as antifeedant consumption at 500 ug/disk after 30 days by no-choice bioassay
Reticulitermes speratus [29] = assay: Antifeedant activity against Reticulitermes speratus assessed as antifeedant consumption at 300 ug/disk after 30 days by no-choice bioassay

SMILES	survival at 50 µg/disc (Reticulitermes speratus [2]) [%]	Activity (Reticulitermes speratus [6]) [%]	Activity (Reticulitermes speratus [7]) [µg]	survival at 100 µg/disc (Reticulitermes speratus [9]) [%]	PC50 (Reticulitermes speratus [10]) [µg]	PC95 (Reticulitermes speratus [10]) [µg]	Activity (Reticulitermes speratus [14]) [µg]	survival at 300 µg/disc (Reticulitermes speratus [16]) [%]	survival at 400 µg/disc (Reticulitermes speratus [17]) [%]	survival at 200 µg/disc (Reticulitermes speratus [18]) [%]	further results
C/C=C(/C)C(=O)O[C@H]1C[C@@H](OC(C)=O)[C@@]2(C)CO[C@H]3[C@H]4O[C@@H]5C[C@@H](c6ccoc6)C(C)=C5[C@@]4(C)[C@H](CC(=O)OC)[C@]1(C)[C@@H]32 [SALANNIN]	58.7	80	1.4	40	19.5	203.3	1.8				Activity (Reticulitermes speratus [1]): 0.8 µg; Activity (Reticulitermes speratus [3]): 0.8 µg; survival at 25 µg/disc (Reticulitermes speratus [4]): 90.7%; Activity (Reticulitermes speratus [5]): 0.5 µg; survival at 75 µg/disc (Reticulitermes speratus [8]): 29.3%; survival at 125 µg/disc (Reticulitermes speratus [11]): 17.3%; survival at 150 µg/disc (Reticulitermes speratus [12]): 30.7%; Activity (Reticulitermes speratus [13]): 3.7 µg
COC(=O)C[C@H]1[C@]2(C)C3=C(C)[C@H](c4ccoc4)C[C@@H]3O[C@@H]2[C@H](O)[C@@H]2[C@@]1(C)C(=O)C=C[C@@]2(C)O		80	19.9		96	245.4	16.3				Activity (Reticulitermes speratus [15]): 6.4 µg; Activity (Reticulitermes speratus [3]): 25.2 µg; Activity (Reticulitermes speratus [5]): 10 µg
C/C=C(\C)C(=O)O[C@H]1C[C@@H](O)[C@@]2(C)CO[C@H]3[C@H]4O[C@@H]5C[C@@H](c6ccoc6)C(C)=C5[C@@]4(C)[C@H](CC(=O)OC)[C@]1(C)[C@@H]32 [DESACETYL SALANNIN]				72	55.2	1373.1		49	44	58	
CC(=O)O[C@@H]1C[C@H]2C(C)(C)C(=O)C=C[C@]2(C)[C@H]2CC[C@]3(C)C(=CC(=O)[C@@H]3c3ccoc3)[C@@]21C [17-EPIAZADIRADIONE]	87			85.5				86.5	86.5	85.5	
CC1(C)C(=O)C=C[C@]2(C)[C@H]3CC[C@@]4(C)[C@H](c5ccoc5)OC(=O)[C@H]5O[C@]54[C@]3(C)[C@H](O)C[C@@H]12 [DEACETYLGEDUNIN]	20		7.2	12	22.5	113.7	4.7				Activity (Reticulitermes speratus [19]): 3.2 µg; Activity (Reticulitermes speratus [20]): 80.38%; Activity (Reticulitermes speratus [21]): 3.1 µg; survival at 7.5 µg/disc (Reticulitermes speratus [22]): 87.3%; survival at 25 µg/disc (Reticulitermes speratus [4]): 45.3%; survival at 5 µg/disc (Reticulitermes speratus [23]): 91.3%; survival at 10 µg/disc (Reticulitermes speratus [24]): 73.3%; Activity (Reticulitermes speratus [25]): 2.2 µg; Activity (Reticulitermes speratus [13]): 4.7 µg
CC(=O)O[C@@H]1C[C@H]2C(C)(C)C(=O)C=C[C@]2(C)[C@H]2CC[C@@]3(C)[C@H](c4ccoc4)C(=O)[C@H]4O[C@]43[C@@]21C [EPOXYAZADIRADIONE]				75.5				76.5	64	77	
CC(=O)O[C@@H]1C[C@H]2C(C)(C)C(=O)C=C[C@]2(C)[C@H]2CC[C@]3(C)C(=CC(=O)[C@H]3c3ccoc3)[C@@]21C [AZADIRADIONE]			55.1	73	238.5	827.5		39	24.5	65.5	survival at 500 µg/disc (Reticulitermes speratus [26]): 0.5%; Activity (Reticulitermes speratus [15]): 79.3 µg; Activity (Reticulitermes speratus [27]): 49.5 µg; Activity (Reticulitermes speratus [28]): 2 µg; Activity (Reticulitermes speratus [29]): 62.9 µg
CC(=O)O[C@@H]1C[C@H]2C(C)(C)C(=O)C=C[C@]2(C)[C@H]2CC[C@@]3(C)[C@H](c4ccoc4)OC(=O)[C@H]4O[C@]43[C@@]21C [GEDUNIN]	51.3	80	11	39.3	49	218.4	9				Activity (Reticulitermes speratus [1]): 6.8 µg; Activity (Reticulitermes speratus [3]): 10.5 µg; survival at 25 µg/disc (Reticulitermes speratus [4]): 82%; Activity (Reticulitermes speratus [5]): 5 µg; survival at 75 µg/disc (Reticulitermes speratus [8]): 49.3%; survival at 125 µg/disc (Reticulitermes speratus [11]): 23.3%; survival at 150 µg/disc (Reticulitermes speratus [12]): 13.3%; Activity (Reticulitermes speratus [13]): 8.5 µg
CC(=O)O[C@@H]1C[C@H]2C(C)(C)C(=O)C=C[C@]2(C)[C@H]2CC[C@]3(C)C(=CC(=O)[C@@]3(O)c3ccoc3)[C@@]21C [17-HYDROXYAZADIRADIONE]	73	80	16.5	61	67.8	235.6	17.8	33.5		50	Activity (Reticulitermes speratus [15]): 9.4 µg; Activity (Reticulitermes speratus [29]): 8.6 µg
COC(=O)C[C@H]1[C@]2(C)C3=C(C)[C@H](c4ccoc4)C[C@H]3O[C@@H]2[C@H](OC(C)=O)[C@@H]2[C@]1(C)C(=O)C=C[C@@]2(C)C(=O)OC [NIMBIN]				84				83	83	84.5	survival at 500 µg/disc (Reticulitermes speratus [26]): 80.5%
COC(=O)C[C@H]1[C@]2(C)C3=C(C)[C@H](c4ccoc4)C[C@H]3O[C@@H]2[C@H](O)[C@@H]2[C@]1(C)C(=O)C=C[C@@]2(C)C(=O)OC [DEACETYLNIMBIN]	87.5			85	280.6	1581.2		74		78.5	
